Drawing on ChEMBL document CHEMBL5257111, “Ribosome-targeting antibiotics and resistance via ribosomal RNA methylation” (RSC Med Chem, 2023), this text covers IC50, MIC and Ki for 16 molecules.

Test [1] deals with rRNA adenine N-6-methyltransferase (Bacillus subtilis, UniProt P13956). Kind of test: Inhibition of Bacillus subtilis ErmC' methyltransferase.
For test [2], the system named is Escherichia coli. Put plainly: Antibacterial activity against Escherichia coli ATCC 8730 assessed as bacterial growth inhibition. The class given is functional.
A further test has as its system Klebsiella pneumoniae. Put plainly: Antibacterial activity against Klebsiella pneumoniae ATCC 10031 assessed as reduction in microbial growth. The class given is functional.
In the next test the test system is Klebsiella aerogenes. Put plainly: Antibacterial activity against Enterobacter aerogenes ATCC 13048 assessed as reduction in bacterial growth. In kind it is functional.
A further test relates to Enterobacter cloacae. Put plainly: Antibacterial activity against Enterobacter cloacae ATCC 29893 assessed as reduction in microbial growth. The class given is functional.
For a further test, the system named is Citrobacter amalonaticus. Put plainly: Antibacterial activity against Citrobacter amalonaticus assessed as reduction in microbial growth. In kind it is functional.
Test [3] relates to Escherichia coli. Kind of test: Antimicrobial activity against Escherichia coli ATCC 25922 assessed as bacterial growth inhibition. The class given is functional.
Test [4] concerns Escherichia coli. Kind of test: Antimicrobial activity against Escherichia coli ATCC 8739 assessed as reduction in bacterial growth. The class given is functional.
The subject of the next test is Acinetobacter baumannii. Kind of test: Antibacterial activity against Acinetobacter baumannii assessed as reduction in bacterial growth by broth microdilution method. In kind it is functional. (In broth dilution the organism is exposed to a series of concentrations in liquid medium.)
A short description of test [5]: Binding affinity to Enterococcus faecalis ErmAM methyltransferase assessed as inhibition constant.
The target in test [6] is T1, Catechol O-methyltransferase (Homo sapiens, UniProt P21964).
T1 sequence (P21964 whole entry): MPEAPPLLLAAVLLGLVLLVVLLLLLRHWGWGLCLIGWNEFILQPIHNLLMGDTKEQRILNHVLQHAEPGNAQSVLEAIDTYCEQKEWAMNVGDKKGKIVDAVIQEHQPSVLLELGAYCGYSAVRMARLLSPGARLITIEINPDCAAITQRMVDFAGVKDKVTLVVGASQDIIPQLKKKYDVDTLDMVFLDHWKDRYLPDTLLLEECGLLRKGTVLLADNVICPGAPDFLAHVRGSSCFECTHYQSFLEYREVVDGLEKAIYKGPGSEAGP
Kind of test: Inhibition of S-COMT (unknown origin).

Some results are limits rather than exact numbers.

rRNA adenine N-6-methyltransferase, sequence (P13956 whole entry): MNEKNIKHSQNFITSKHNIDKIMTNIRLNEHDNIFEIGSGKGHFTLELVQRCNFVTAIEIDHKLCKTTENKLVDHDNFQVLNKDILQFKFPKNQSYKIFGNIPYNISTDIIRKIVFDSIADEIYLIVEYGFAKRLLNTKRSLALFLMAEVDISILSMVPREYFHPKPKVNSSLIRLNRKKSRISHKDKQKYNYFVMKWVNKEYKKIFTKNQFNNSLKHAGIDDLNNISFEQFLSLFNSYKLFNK

As for `O=C1c2ccccc2C(=O)N1CN(CCCn1ccnc1)CN1C(=O)c2ccccc2C1=O`, the IC50 (as a rule, the concentration needed to halve the response being measured) in test [1] was found to be 300 µM.

As to GENTAMICIN, the MIC (usually the smallest concentration in the dilution series that meets the test's criterion for growth inhibition) was greater than 512 µg/mL in the test on Escherichia coli [2]; greater than 512 µg/mL with Klebsiella pneumoniae; greater than 512 µg/mL in the test with Klebsiella aerogenes; greater than 512 µg/mL in the test with Enterobacter cloacae; greater than 512 µg/mL in the test with Citrobacter amalonaticus; greater than 256 µg/mL with Escherichia coli [3].

Turning to `NC[C@@H]1O[C@H](O[C@H]2[C@@H](O)[C@H](O[C@@H]3[C@@H](O)[C@H](N)C[C@H](N)[C@H]3O[C@H]3O[C@H](CN)[C@@H](O)[C@H](O)[C@H]3N)O[C@@H]2CO)[C@H](N)[C@@H](O)[C@@H]1O` [FRAMYCETIN], in the test on Escherichia coli [4], the MIC is greater than 256 µg/mL.

As to `NCC[C@H](O)C(=O)N[C@@H]1C[C@H](N)[C@@H](O[C@H]2O[C@H](CN)[C@@H](O)[C@H](O)[C@H]2O)[C@H](O)[C@H]1O[C@H]1O[C@H](CO)[C@@H](O)[C@H](N)[C@H]1O` [AMIKACIN], the MIC in the test with Acinetobacter baumannii was greater than 256 µg/mL; in the test on Escherichia coli [2] it was greater than 512 µg/mL; with Klebsiella pneumoniae it was greater than 512 µg/mL; in the test with Klebsiella aerogenes, greater than 512 µg/mL; with Enterobacter cloacae it was greater than 512 µg/mL; in the test on Citrobacter amalonaticus, greater than 512 µg/mL.

Turning to `Nc1cccc(-c2nc(N)nc(NC3Cc4ccccc4C3)n2)c1`, in [5], the Ki (usually a dissociation constant, usually derived from enzyme kinetics or from competition with a known ligand) amounted to 4 µM.

`Nc1nc(NC2Cc3ccccc3C2)nc(N2CCC(C(=O)NCCc3c[nH]c4ccccc34)CC2)n1`: in test [5], the Ki was found to be 2 µM.

For `COc1ccc(C(=O)Nc2cccc(-c3nc4ccccc4[nH]3)c2)cc1`, half-maximal inhibition in [6] (IC50) required 73 µM.

The molecule `OC[C@H]1O[C@@H](n2cnc3c(NC4CCCC4)ncnc32)[C@H](O)[C@@H]1O` [N6-CYCLOPENTYLADENOSINE] yielded an IC50 in [1] of 80 µM.

For `O=C(c1cnc(Nc2ncccn2)s1)N1CCN(c2ccc(C(F)(F)F)cn2)CC1`, in test [1], the IC50 came out at 110 µM.

In turn, `O=C(Nc1cccc(-c2nc3ccccc3[nH]2)c1)c1ccccc1` displayed an IC50 in [6] of 26 µM. In other words, the double-digit micromolar range.

`O=C(c1c[nH]c(=O)[nH]1)N1CCN(c2ccc(C(F)(F)F)cn2)CC1` returned an IC50 in test [1] of 100 µM.

`Cc1ccc(Sc2cc(C)c(C#N)c(Sc3ccc(C)cc3)n2)cc1` came in with a half-maximal inhibitory concentration (IC50) in [1] of 180 µM.

In the case of `C(=N\Nc1ncnc2c1nnn2Cc1ccccc1)/c1ccccc1`, the IC50 in test [1] was 250 µM.

Take `NC[C@H]1O[C@H](O[C@H]2[C@H](O)[C@@H](O[C@H]3O[C@H](CO)[C@@H](O)[C@H](N)[C@H]3O)[C@H](N)C[C@@H]2N)[C@H](N)C[C@@H]1O` [TOBRAMYCIN]: the MIC in the test with Escherichia coli [2], in the test with Klebsiella pneumoniae, in the test with Klebsiella aerogenes, with Enterobacter cloacae and in the test on Citrobacter amalonaticus was greater than 512 µg/mL each time.

Turning to `NC[C@H]1O[C@H](O[C@H]2[C@H](O)[C@@H](O[C@H]3O[C@H](CO)[C@@H](O)[C@H](N)[C@H]3O)[C@H](N)C[C@@H]2N)[C@H](O)[C@@H](O)[C@@H]1O` [KANAMYCIN], the MIC with Escherichia coli [3] was greater than 256 µg/mL.

The molecule `Cc1ccc(Nc2ncc(C(=O)N3CCN(c4ccc(C(F)(F)F)cn4)CC3)s2)nc1` came in with an IC50 in test [1] of 116 µM.
